Experiments:
EP4R [1] = target: T1, EP4R (Homo sapiens, UniProt P35408); experiment: PRESTO-Tango β-arrestin2 recruitment assay; type: cell-based; conditions: for IC50: EC80 of PGE2
T1 construct: Tango fusion cassette (only 'tango' is printed); expressed in transfected cells; host or cells: HTLA cells (tTA-dependent luciferase reporter, β-arrestin2-TEV fusion)

EP4R [2] = target: T1, EP4R; experiment: biochemical; type: binding; conditions: for inhibition at 10 µM: read-out: % displacement of 3HPGE2 at 10 µM, 10 µM compound vs 10 nM 3H-PGE2; for % displacement of 3HPGE2 at 10 µM: 10 µM compound vs 10 nM 3H-PGE2

T1 sequence (P35408 whole entry, the tested form may be a part): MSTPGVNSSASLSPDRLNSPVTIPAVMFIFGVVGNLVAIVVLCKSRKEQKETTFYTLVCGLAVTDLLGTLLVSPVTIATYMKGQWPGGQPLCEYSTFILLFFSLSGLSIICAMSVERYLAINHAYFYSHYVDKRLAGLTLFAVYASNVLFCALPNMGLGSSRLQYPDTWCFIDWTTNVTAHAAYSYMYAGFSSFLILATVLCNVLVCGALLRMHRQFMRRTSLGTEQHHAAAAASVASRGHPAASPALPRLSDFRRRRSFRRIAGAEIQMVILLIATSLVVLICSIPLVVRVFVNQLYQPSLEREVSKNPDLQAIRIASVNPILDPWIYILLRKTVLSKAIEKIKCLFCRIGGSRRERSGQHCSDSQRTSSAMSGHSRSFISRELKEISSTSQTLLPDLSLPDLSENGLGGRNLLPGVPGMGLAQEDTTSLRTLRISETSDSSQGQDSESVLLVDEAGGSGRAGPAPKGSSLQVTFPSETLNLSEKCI

CN1C(=O)C(=Cc2cccc(OCC(=O)O)c2)c2cc(Br)cnc21 [Compound 62, CN1C(=O)C(=CC=2C=CC=C(OCC(=O)O)C2)C=3C=C(Br)C=NC13]
IC50 (EP4R [1]; PRESTO-Tango -logIC50, antagonist mode): 3470 nM | IC50 (EP4R [1]; PRESTO-Tango IC50 (nM), antagonist mode): 3510 nM | Ki (EP4R [1]; PRESTO-Tango Ki* (nM)): 702 nM | antagonist activity at EP4R (EP4R [1]; concentration-response): dose-dependent antagonist activity | inhibition at 10 µM (EP4R [2]): 17.2%

O=C(O)[C@H]1C[C@@H](C(=O)N(Cc2ccsc2)c2ccccc2)C1 [Compound 31, OC(=O)[C@H]1C[C@H](C1)C(=O)N(CC=2C=CSC2)C=3C=CC=CC3]
% displacement of 3HPGE2 at 10 µM (EP4R [2]): -9.4%

O=C(O)c1cc2c(s1)CCCN(C(=O)C1CC13CCc1ccccc13)C2 (stereo not shown) [Compound 26, OC(=O)C1=CC=2CN(CCCC2S1)C(=O)C3CC43CCC=5C=CC=CC54]
inhibition at 10 µM (EP4R [2]): -10.6%

O=C(NC1CCCC1C(=O)O)C(Sc1ccc(F)cc1)c1ccccc1 (stereo not shown) [Compound 28, OC(=O)C1CCCC1NC(=O)C(SC=2C=CC(F)=CC2)C=3C=CC=CC3]
inhibition at 10 µM (EP4R [2]): -10.3%

O=C(O)Cc1ccc(NC(=O)c2cncc(-c3ccccc3)c2)cc1 [Compound 51, OC(=O)CC=1C=CC(NC(=O)C=2C=NC=C(C2)C=3C=CC=CC3)=CC1]
inhibition at 10 µM (EP4R [2]): 1%

CN(Cc1nccn1C1CC1)c1ncnc2[nH]c(C(=O)O)cc12 [Compound 16, CN(CC1=NC=CN1C2CC2)C=3N=CN=C4NC(=CC34)C(=O)O]
inhibition at 10 µM (EP4R [2]): -14.5%

O=C(O)CC[C@H]1C[C@@H](NC(=O)C(O)c2ccc(Cl)cc2Cl)C1 (stereo partly shown) [Compound 18, OC(C(=O)N[C@H]1C[C@@H](CCC(=O)O)C1)C=2C=CC(Cl)=CC2Cl]
inhibition at 10 µM (EP4R [2]): -13.7%

CC(Sc1ccccc1Cl)C(=O)N1CCCC(Cc2nnn[nH]2)C1 (stereo not shown) [Compound 58, CC(SC=1C=CC=CC1Cl)C(=O)N2CCCC(CC3=NN=NN3)C2]
inhibition at 10 µM (EP4R [2]): 10.8%

COc1ccc(-c2cc(CS(=O)(=O)c3nnc(C)[nH]3)on2)cc1 [Compound 22, COC=1C=CC(=CC1)C=2C=C(CS(=O)(=O)C3=NN=C(C)N3)ON2]
inhibition at 10 µM (EP4R [2]): -11.6%

CC(c1cn(-c2ccccc2)nn1)N1CCN(C(=O)C(=O)O)CC1 (stereo not shown) [Compound 49, CC(N1CCN(CC1)C(=O)C(=O)O)C2=CN(N=N2)C=3C=CC=CC3]
inhibition at 10 µM (EP4R [2]): 0.8%

O=C(O)CCN(Cc1ccccc1)C(=O)CC1(C(F)(F)F)CC1 [Compound 21, OC(=O)CCN(CC=1C=CC=CC1)C(=O)CC2(CC2)C(F)(F)F]
inhibition at 10 µM (EP4R [2]): -12.3%

CC1(COC(=O)c2ccc(NS(C)(=O)=O)nc2)CC1(F)Cl (stereo not shown) [Compound 7, CC1(COC(=O)C=2C=CC(NS(=O)(=O)C)=NC2)CC1(F)Cl]
inhibition at 10 µM (EP4R [2]): -18.4%

CN(c1cccc(CC(=O)O)c1)S(=O)(=O)CC1Cc2ccccc2C1 [Compound 23, CN(C=1C=CC=C(CC(=O)O)C1)S(=O)(=O)CC2CC=3C=CC=CC3C2]
inhibition at 10 µM (EP4R [2]): -11.1%

Cn1nnnc1NCC(C(=O)OCc1ccccc1)c1ccccc1 (stereo not shown) [Compound 67, CN1N=NN=C1NCC(C(=O)OCC=2C=CC=CC2)C=3C=CC=CC3]
inhibition at 10 µM (EP4R [2]): 31.5%

COc1ccccc1CN(Cc1cccs1)C(=O)Cc1cccc(C(=O)O)c1 [Compound 52, COC=1C=CC=CC1CN(CC2=CC=CS2)C(=O)CC=3C=CC=C(C3)C(=O)O]
inhibition at 10 µM (EP4R [2]): 1.2%

CCc1ncc(CN(CC(=O)O)C(=O)OCc2cccnc2)s1 [Compound 2, CCC1=NC=C(CN(CC(=O)O)C(=O)OCC=2C=CC=NC2)S1]
inhibition at 10 µM (EP4R [2]): -23.1%

O=C(O)CCC(Cc1ccccc1)NS(=O)(=O)C=Cc1ccccc1Cl (stereo not shown) [Compound 55, OC(=O)CCC(CC=1C=CC=CC1)NS(=O)(=O)C=CC=2C=CC=CC2Cl]
inhibition at 10 µM (EP4R [2]): 7.6%

Cc1ccc(CN(Cc2ccco2)C(=O)CSc2nnc(S)s2)s1 [Compound 37, CC1=CC=C(CN(CC2=CC=CO2)C(=O)CSC3=NN=C(S)S3)S1]
inhibition at 10 µM (EP4R [2]): -5.2%

O=C(O)C(NS(=O)(=O)CCc1cccc(Cl)c1)C(O)c1ccccc1 (stereo not shown) [Compound 29, OC(C(NS(=O)(=O)CCC=1C=CC=C(Cl)C1)C(=O)O)C=2C=CC=CC2]
inhibition at 10 µM (EP4R [2]): -10.2%

NC(=O)c1cc(C(=O)Nc2ccc(CC(=O)O)cc2)nn1-c1ccccc1 [Compound 6, NC(=O)C1=CC(=NN1C=2C=CC=CC2)C(=O)NC=3C=CC(CC(=O)O)=CC3]
inhibition at 10 µM (EP4R [2]): -18.8%

COc1ccc(Cl)cc1C(Nc1ncc(C(=O)O)s1)c1ccccc1 (stereo not shown) [Compound 10, COC=1C=CC(Cl)=CC1C(NC2=NC=C(S2)C(=O)O)C=3C=CC=CC3]
inhibition at 10 µM (EP4R [2]): -17.8%

CN(C(=O)c1cc(N2CCCC2=O)cc(C(F)(F)F)c1)c1nnn[nH]1 [Compound 44, CN(C(=O)C=1C=C(C=C(C1)C(F)(F)F)N2CCCC2=O)C3=NN=NN3]
inhibition at 10 µM (EP4R [2]): -2.6%

CC(CN(C(=O)c1ccn(-c2ccccc2)n1)C1CC1)C(=O)O (stereo not shown) [Compound 17, CC(CN(C1CC1)C(=O)C=2C=CN(N2)C=3C=CC=CC3)C(=O)O]
inhibition at 10 µM (EP4R [2]): -14%

CN(c1nc2cccc(F)c2s1)[C@H]1C[C@@H](C(=O)O)C1 [Compound 8, CN([C@H]1C[C@H](C1)C(=O)O)C2=NC=3C=CC=C(F)C3S2]
inhibition at 10 µM (EP4R [2]): -18.4%

O=C(O)c1cc(NS(=O)(=O)c2cnc3ccsc3c2)ccc1O [Compound 27, OC(=O)C=1C=C(NS(=O)(=O)C=2C=NC=3C=CSC3C2)C=CC1O]
inhibition at 10 µM (EP4R [2]): -10.4%

O=C(O)c1ccc(-c2ccc(C=C3CSc4ccc(F)cc4C3=O)o2)cc1O [Compound 56, OC(=O)C=1C=CC(=CC1O)C2=CC=C(C=C3CSC=4C=CC(F)=CC4C3=O)O2]
inhibition at 10 µM (EP4R [2]): 7.9%

CN(C(=O)C1CCCC1Cc1ccccc1)[C@H]1C[C@@H](C(=O)O)C1 (stereo partly shown) [Compound 40, CN([C@H]1C[C@H](C1)C(=O)O)C(=O)C2CCCC2CC=3C=CC=CC3]
inhibition at 10 µM (EP4R [2]): -4%

CC1(C(=O)O)CCN(C(=O)C(O)c2ccc(Cl)c(Br)c2)C1 (stereo not shown) [Compound 14, CC1(CCN(C1)C(=O)C(O)C=2C=CC(Cl)=C(Br)C2)C(=O)O]
inhibition at 10 µM (EP4R [2]): -14.7%

CC(CN(C(=O)CCc1ccc2ccccc2c1)C1CC1)C(=O)O (stereo not shown) [Compound 19, CC(CN(C1CC1)C(=O)CCC=2C=CC=3C=CC=CC3C2)C(=O)O]
inhibition at 10 µM (EP4R [2]): -13.2%

O=C(O)[C@H]1C[C@@H](C(=O)N(Cc2ccsc2)c2ccccc2)C1 [Compound 33, OC(=O)[C@H]1C[C@H](C1)C(=O)N(CC=2C=CSC2)C=3C=CC=CC3]
% displacement of 3HPGE2 at 10 µM (EP4R [2]): -8.1%

CC(c1nc(-c2cccc(C(F)(F)F)c2)no1)S(=O)(=O)c1nnc[nH]1 (stereo not shown) [Compound 50, CC(C1=NC(=NO1)C=2C=CC=C(C2)C(F)(F)F)S(=O)(=O)C3=NN=CN3]
inhibition at 10 µM (EP4R [2]): 0.9%

Cc1nn(CC(F)(F)F)c(C)c1CC(=O)N(C1CC1)C(C)C(=O)O (stereo not shown) [Compound 43, CC(N(C1CC1)C(=O)CC=2C(C)=NN(CC(F)(F)F)C2C)C(=O)O]
inhibition at 10 µM (EP4R [2]): -2.6%

O=C(O)c1c[nH]c2c(Cl)cc(-c3ccc4ccccc4c3F)cc2c1=O [Compound 12, OC(=O)C1=CNC=2C(Cl)=CC(=CC2C1=O)C=3C=CC=4C=CC=CC4C3F]
inhibition at 10 µM (EP4R [2]): -17.1%

Cc1cc(C)cc(C2(C(=O)NC(C)c3ncc(C(=O)O)s3)CC2)c1 (stereo not shown) [Compound 54, CC(NC(=O)C1(CC1)C=2C=C(C)C=C(C)C2)C3=NC=C(S3)C(=O)O]
inhibition at 10 µM (EP4R [2]): 3.6%

O=C(O)c1ccc(C2CCCN2S(=O)(=O)c2ccccc2-c2ccno2)s1 (stereo not shown) [Compound 30, OC(=O)C1=CC=C(S1)C2CCCN2S(=O)(=O)C=3C=CC=CC3C4=CC=NO4]
inhibition at 10 µM (EP4R [2]): -10.1%

O=C(NCc1ccc(C(F)F)cc1)NC[C@H]1CC[C@H](C(=O)O)CC1 [Compound 41, OC(=O)[C@H]1CC[C@H](CNC(=O)NCC=2C=CC(=CC2)C(F)F)CC1]
inhibition at 10 µM (EP4R [2]): -3.4%

Source: article PMC10700596 (Nature Communications, 2023)
